Measurements taken from ChEMBL document CHEMBL1151676, “Structure and absolute stereochemistry of fusaproliferin, a toxic metabolite from Fusarium proliferatum” (J Nat Prod, 1996).
≈ marks a conversion by molar mass, not a printed value.

Experiment: Toxicity in Artemia salina
Format: organism-based
Conditions: in vivo, read-out: LD50 (the source's name)

Work on `CC(=O)OC[C@@H](C)C1=C(O)C(=O)[C@@]2(C)C/C=C(\C)CC/C=C(\C)CC[C@H](O)/C(C)=C/C[C@H]12` [FUSAPROLIFERIN] yielded an LC50 of 0.4 µg/mL (≈ 0.9 µM).
